pIC50: −log10 of the molar value.
Experiments:
[1] = Anaerobic continuous-wave photolysis of methylcob(III)alamin; format: physicochemical; details: 514 nm light from an Argon-ion laser
Method: A protocol for a typical anaerobic continuous-wave photolysis of methylcob(III)alamin or CH3Cbl^III is as follows. An aqueous solution of 200 μM CH3Cbl^III and 50 mM K^+ Hepes pH 7.3 is placed in a 1 cm quartz cuvette. Samples that are to be photolyzed under anaerobic conditions are either subjected to repeated freeze-pump-thaw cycles, or purged with Ar for 40 minutes immediately prior to photolysis and sealed. Continuous-wave visible light irradiation is accomplished at the desired wavelength with an Ar^+ pumped dye laser. The incident light on the face of the cuvette is reduced to 12 mW cm^−2 with neutral density filters. The light flux is determined by potassium ferrioxalate actinomety and by a Scientech surface-reading thermopile. The cuvette is placed in a thermostated cell holder at 25-37° C. […] The magnetic field within the area of the cuvette is homogeneous to within 2% and the long term stability is better than 0.5% as monitored by a transverse Hall probe and digital teslameter.
Absorption spectra from 300-600 nm are recorded in one second with a diode array spectrophotometer at variable time intervals from 10 seconds to 2 minutes (depending upon the fluence of the photolyzing light source) for a total of 3 τ1/2. […] The concentration of CH3Cbl^III is determined using the measured absorbance at 350 or 520 nm by the method of Chen and Chance (1993). […]

[2] = system: Meth-A cell line; assay: MTT cell viability assay, Meth-A cell line; format: cell-based, mouse
[3] = system: RD-995 cell line; assay: MTT cell viability assay, RD-995 cell line; format: cell-based, mouse
[4] = Thermal stability of bioconjugates in media (UV-vis, then photolysis check); format: physicochemical
[5] = system: HL-60 cell line; assay: MTT cell viability assay, HL-60 cell line; format: cell-based, human; details: for pIC50: HL-60
[6] = system: HCT-116 cell line; assay: MTT cell viability assay, HCT-116 cell line; format: cell-based, human; details: for pIC50: HCT-116
[7] = system: B-16 cell line; assay: MTT cell viability assay, B-16 cell line; format: cell-based, mouse
[8] = Photolysis (10 min irradiation, 1 h after treatment)
[9] = Mus musculus, unconjugated chlorambucil
[10] = Homo sapiens, unconjugated chlorambucil

Compound | pIC50 ([2]; No Photolysis) | pIC50 [2, 8] | pIC50 [3, 8] | thermal lability [4] | pIC50 ([5]; No Photolysis) | pIC50 [6, 8] | pIC50 [7, 8] | other results
C/C1=C2/[N-][C@H]([C@H](CC(N)=O)[C@@]2(C)CCC(=O)NC[C@@H](C)OP(=O)([O-])O[C@H]2[C@@H](O)[C@@H](n3cnc4cc(C)c(C)cc43)O[C@@H]2CO)[C@]2(C)N=C(/C(C)=C3N=C(/C=C4N=C1[C@@H](CCC(N)=O)C\4(C)C)[C@@H](CCC(N)=O)[C@]\3(C)CC(N)=O)[C@@H](CCC(N)=O)[C@]2(C)CC(N)=O.[CH3-].[Co] [CH3Cbl^III, methylcob(III)alamin] |  |  |  |  |  |  |  | photolysis quantum yield [1]: about 0.3
2-[4-(4′-[bis-(2-chloroethyl)amino]phenyl)butyroxy]ethylcob(III)alamin [compound 3] | 3.68 | 6.70 | 6.70 | thermal lability | 5.49 | 5.77 | 6.22 | LD50 ([5]; HL-60, FIG. 6, bioconjugate, no photolysis): 0.2 µM; fold better than unconjugated chlorambucil standard (LD50) ([5]; HL-60, FIG. 6, no photolysis): at least 2 fold; toxicity ([5]; HL-60, FIG. 6, with addition of 10 equivalents of vitamin B12, no photolysis): absence of toxicity; LD50 ([6]; HCT-116, FIG. 5, brief irradiation with red light 12 hours after dosing): 0.08 µM; toxicity ([6]; HCT-116, FIG. 5, no photolysis, at concentrations approaching 100 μM): no substantial toxicity; LD50 ([6]; HCT-116, FIG. 5, photolysis with 10-fold excess of vitamin B12 added): 2 µM
O=C(O)CCCc1ccc(N(CCCl)CCCl)cc1 [Chlorambucil, reference compound] |  |  |  |  |  |  |  | pIC50 [2, 9]: 5.74; pIC50 [3, 9]: 5.96; LD50 ([5]; HL-60, FIG. 6, unconjugated chlorambucil standard): 0.5 µM; pIC50 [5, 10]: 5.24; LD50 ([6]; HCT-116, FIG. 5, chlorambucil alone): about 2 μM; pIC50 [6, 10]: 4.68; pIC50 ([7]; Mus musculus, B16, unconjugated chlorambucil): 5.85
4-[4′-(bis-[2-chloroethyl]amino)phenyl]butyroylcob(III)alamin [compound 4] | 4.07 | 6.52 | 6.52 | thermal lability | 5.05 | 5.96 | 6.52 | 

From US6777237B2, “Bioconjugates and delivery of bioactive agents” (University of Utah Research Foundation, priority 1996, dated 2004)
